Assays:
Format in all cases: in vivo
[1] = test system: velvetleaf (Abutilon theophrasti); test: Test G Post-Emergence Protocol; conditions: Abutilon theophrasti, post-emergence, 312 h; for pest or weed control at 15.625 g/ha: 15.625 g ai/ha, evaluated after 13 days (100=total damage to plant; 0=no damage to plant), read-out: Velvetleaf damage rating; for pest or weed control at 62.5 g/ha: 62.5 g ai/ha, read-out: Velvetleaf damage rating (100=total damage to plant; 0=no damage to plant); for pest or weed control at 62.5 g/ha / pest or weed control at 250 g/ha: evaluated after 13 days; for pest or weed control at 250 g/ha: 250 g ai/ha, read-out: damage to plant, Velvetleaf (100=total damage to plant; 0=no damage to plant)
Procedure, shortened: (§1)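 Eight days post-sowing, plants received a spray of test compound (acetone/water 50:50, 0.5% Tween 20) at 15.625, 62.5 or 250 g/ha. Glasshouse regime thereafter: 24/16 °C, 14 h light, 65% humidity. Assessment after 13 days on a 0–100 damage scale.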

[2] = test system: ivy-leaved morning glory (Ipomoea hederacea); test: Test G Post-Emergence Protocol; conditions: Ipomoea, post-emergence, 312 h; for pest or weed control at 15.625 g/ha: 15.625 g ai/ha, evaluated after 13 days (100=total damage to plant; 0=no damage to plant), read-out: Morningglory, Ivy-leaved damage rating; for pest or weed control at 62.5 g/ha: 62.5 g ai/ha, read-out: Morningglory, Ivy-leaved damage rating (100=total damage to plant; 0=no damage to plant); for pest or weed control at 62.5 g/ha / pest or weed control at 250 g/ha: evaluated after 13 days; for pest or weed control at 250 g/ha: 250 g ai/ha, read-out: damage to plant, Morningglory, Ivy-leaved (100=total damage to plant; 0=no damage to plant)
Procedure, shortened: as §1

[3] = test system: redroot pigweed (Amaranthus retroflexus); test: Test G Post-Emergence Protocol; conditions: Amaranthus retroflexus, post-emergence, 312 h; for pest or weed control at 15.625 g/ha: 15.625 g ai/ha, evaluated after 13 days (100=total damage to plant; 0=no damage to plant), read-out: Pigweed, Redroot damage rating; for pest or weed control at 62.5 g/ha: 62.5 g ai/ha, read-out: Pigweed, Redroot damage rating (100=total damage to plant; 0=no damage to plant); for pest or weed control at 62.5 g/ha / pest or weed control at 250 g/ha: evaluated after 13 days; for pest or weed control at 250 g/ha: 250 g ai/ha, read-out: damage to plant, Pigweed, Redroot (100=total damage to plant; 0=no damage to plant)
Procedure, shortened: as §1

corn (Zea mays) [4] = test: Test G Post-Emergence Protocol; conditions: Zea mays, post-emergence, 312 h; for plant injury at 15.625 g/ha: 15.625 g ai/ha, evaluated after 13 days (100=total damage to plant; 0=no damage to plant), read-out: Corn damage rating; for plant injury at 62.5 g/ha: 62.5 g ai/ha, read-out: Corn damage rating (100=total damage to plant; 0=no damage to plant); for plant injury at 62.5 g/ha / plant injury at 250 g/ha: evaluated after 13 days; for plant injury at 250 g/ha: 250 g ai/ha, read-out: damage to plant, Corn (100=total damage to plant; 0=no damage to plant)
Procedure, shortened: as §1

[5] = test system: giant foxtail (Setaria faberi); test: Test G Post-Emergence Protocol; conditions: Setaria faberi, post-emergence, 312 h; for pest or weed control at 15.625 g/ha: 15.625 g ai/ha, evaluated after 13 days (100=total damage to plant; 0=no damage to plant), read-out: Foxtail, Giant damage rating; for pest or weed control at 62.5 g/ha: 62.5 g ai/ha, read-out: Foxtail, Giant damage rating (100=total damage to plant; 0=no damage to plant); for pest or weed control at 62.5 g/ha / pest or weed control at 250 g/ha: evaluated after 13 days; for pest or weed control at 250 g/ha: 250 g ai/ha, read-out: damage to plant, Foxtail, Giant (100=total damage to plant; 0=no damage to plant)
Procedure, shortened: as §1

[6] = test system: barnyardgrass (Echinochloa crus-galli); test: Test G Post-Emergence Protocol; conditions: Echinochloa crus-galli, post-emergence, 312 h; for pest or weed control at 15.625 g/ha: 15.625 g ai/ha, evaluated after 13 days (100=total damage to plant; 0=no damage to plant), read-out: Barnyardgrass damage rating; for pest or weed control at 62.5 g/ha: 62.5 g ai/ha, read-out: Barnyardgrass damage rating (100=total damage to plant; 0=no damage to plant); for pest or weed control at 62.5 g/ha / pest or weed control at 250 g/ha: evaluated after 13 days; for pest or weed control at 250 g/ha: 250 g ai/ha, read-out: damage to plant, Barnyardgrass (100=total damage to plant; 0=no damage to plant)
Procedure, shortened: as §1

[7] = test system: velvetleaf (Abutilon theophrasti); test: Test G Pre-Emergence Protocol; conditions: Abutilon theophrasti, pre-emergence, 312 h, evaluated after 13 days; for pest or weed control at 15.625 g/ha: 15.625 g ai/ha; for pest or weed control at 15.625 g/ha / pest or weed control at 250 g/ha: read-out: Velvetleaf damage rating (100=total damage to plant; 0=no damage to plant); for pest or weed control at 62.5 g/ha: 62.5 g ai/ha, 100=total damage to plant, 0=no damage to plant, read-out: plant damage rating, Velvetleaf; for pest or weed control at 250 g/ha: 250 g ai/ha
Procedure, shortened: (§2)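 Visual injury (0–100) at day 13 after a single pre-emergence spray. Rates: 15.625, 62.5, 250 g/ha in acetone–water 50:50 with 0.5% Tween 20. Growth conditions: 24/16° C, 14 h light, 65% humidity.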

[8] = test system: ivy-leaved morning glory (Ipomoea hederacea); test: Test G Pre-Emergence Protocol; conditions: Ipomoea, pre-emergence, 312 h, evaluated after 13 days; for pest or weed control at 15.625 g/ha: 15.625 g ai/ha, read-out: Morning-glory, Ivy-leaved damage rating (100=total damage to plant; 0=no damage to plant); for pest or weed control at 62.5 g/ha: 62.5 g ai/ha, 100=total damage to plant, 0=no damage to plant, read-out: plant damage rating, Morningglory, Ivy-leaved; for pest or weed control at 250 g/ha: 250 g ai/ha, read-out: Morningglory, Ivy-leaved damage rating (100=total damage to plant; 0=no damage to plant)
Procedure, shortened: as §2

[9] = test system: redroot pigweed (Amaranthus retroflexus); test: Test G Pre-Emergence Protocol; conditions: Amaranthus retroflexus, pre-emergence, 312 h, evaluated after 13 days; for pest or weed control at 15.625 g/ha: 15.625 g ai/ha; for pest or weed control at 15.625 g/ha / pest or weed control at 250 g/ha: read-out: Pigweed, Redroot damage rating (100=total damage to plant; 0=no damage to plant); for pest or weed control at 62.5 g/ha: 62.5 g ai/ha, 100=total damage to plant, 0=no damage to plant, read-out: plant damage rating, Pigweed, Redroot; for pest or weed control at 250 g/ha: 250 g ai/ha
Procedure, shortened: as §2

corn (Zea mays) [10] = test: Test G Pre-Emergence Protocol; conditions: Zea mays, pre-emergence, 312 h, evaluated after 13 days; for plant injury at 15.625 g/ha: 15.625 g ai/ha; for plant injury at 15.625 g/ha / plant injury at 250 g/ha: read-out: Corn damage rating (100=total damage to plant; 0=no damage to plant); for plant injury at 62.5 g/ha: 62.5 g ai/ha, 100=total damage to plant, 0=no damage to plant, read-out: plant damage rating, Corn; for plant injury at 250 g/ha: 250 g ai/ha
Procedure, shortened: as §2

[11] = test system: giant foxtail (Setaria faberi); test: Test G Pre-Emergence Protocol; conditions: Setaria faberi, pre-emergence, 312 h, evaluated after 13 days; for pest or weed control at 15.625 g/ha: 15.625 g ai/ha; for pest or weed control at 15.625 g/ha / pest or weed control at 250 g/ha: read-out: Foxtail, Giant damage rating (100=total damage to plant; 0=no damage to plant); for pest or weed control at 62.5 g/ha: 62.5 g ai/ha, 100=total damage to plant, 0=no damage to plant, read-out: plant damage rating, Foxtail, Giant; for pest or weed control at 250 g/ha: 250 g ai/ha
Procedure, shortened: as §2

[12] = test system: barnyardgrass (Echinochloa crus-galli); test: Test G Pre-Emergence Protocol; conditions: Echinochloa crus-galli, pre-emergence, 312 h, evaluated after 13 days; for pest or weed control at 15.625 g/ha: 15.625 g ai/ha, read-out: Barnyard grass damage rating (100=total damage to plant; 0=no damage to plant); for pest or weed control at 62.5 g/ha: 62.5 g ai/ha, 100=total damage to plant, 0=no damage to plant, read-out: plant damage rating, Barnyardgrass; for pest or weed control at 250 g/ha: 250 g ai/ha, read-out: Barnyardgrass damage rating (100=total damage to plant; 0=no damage to plant)
Procedure, shortened: as §2

| Structure (SMILES) | pest or weed control at 15.625 g/ha [1] [%] | pest or weed control at 62.5 g/ha [1] [%] | pest or weed control at 250 g/ha [1] [%] | pest or weed control at 15.625 g/ha [2] [%] | pest or weed control at 62.5 g/ha [2] [%] | pest or weed control at 250 g/ha [2] [%] | pest or weed control at 15.625 g/ha [3] [%] | pest or weed control at 62.5 g/ha [3] [%] | pest or weed control at 250 g/ha [3] [%] | plant injury at 15.625 g/ha (corn (Zea mays) [4]) [%] | plant injury at 62.5 g/ha (corn (Zea mays) [4]) [%] | plant injury at 250 g/ha (corn (Zea mays) [4]) [%] | pest or weed control at 15.625 g/ha [5] [%] | pest or weed control at 62.5 g/ha [5] [%] | pest or weed control at 250 g/ha [5] [%] | pest or weed control at 15.625 g/ha [6] [%] | pest or weed control at 62.5 g/ha [6] [%] | pest or weed control at 250 g/ha [6] [%] | pest or weed control at 15.625 g/ha [7] [%] | pest or weed control at 62.5 g/ha [7] [%] | further results |
| --- | --- | --- | --- | --- | --- | --- | --- | --- | --- | --- | --- | --- | --- | --- | --- | --- | --- | --- | --- | --- | --- |
| Cc1cnc(NC(=O)[C@@H]2C(=O)N(C)C[C@H]2c2ccc(C(F)(F)F)cc2)nc1 (racemic) [Compound 1575] | 0 | 0 | 0 | 0 | 0 | 0 | 0 | 0 | 0 | 0 | 0 | 0 | 0 | 0 | 0 | 0 | 0 | 0 | 0 | 0 | pest or weed control at 250 g/ha [7]: 0%; pest or weed control at 15.625 g/ha [8]: 0%; pest or weed control at 62.5 g/ha [8]: 0%; pest or weed control at 250 g/ha [8]: 0%; pest or weed control at 15.625 g/ha [9]: 0%; pest or weed control at 62.5 g/ha [9]: 0%; pest or weed control at 250 g/ha [9]: 0%; plant injury at 15.625 g/ha (corn (Zea mays) [10]): 0%; plant injury at 62.5 g/ha (corn (Zea mays) [10]): 0%; plant injury at 250 g/ha (corn (Zea mays) [10]): 0%; pest or weed control at 15.625 g/ha [11]: 0%; pest or weed control at 62.5 g/ha [11]: 0%; pest or weed control at 250 g/ha [11]: 0%; pest or weed control at 15.625 g/ha [12]: 0%; pest or weed control at 62.5 g/ha [12]: 0%; pest or weed control at 250 g/ha [12]: 0% |
| CN1C[C@@H](c2ccc(C(F)(F)F)cc2)[C@H](C(=O)Nc2n[nH]c(C(F)(F)F)n2)C1=O (racemic) [Compound 1540] | 0 | 0 | 0 | 0 | 10 | 10 | 0 | 0 | 20 | 0 | 10 | 10 | 0 | 0 | 0 | 0 | 0 | 0 | 0 | 0 | pest or weed control at 250 g/ha [7]: 0%; pest or weed control at 15.625 g/ha [8]: 0%; pest or weed control at 62.5 g/ha [8]: 0%; pest or weed control at 250 g/ha [8]: 0%; pest or weed control at 15.625 g/ha [9]: 0%; pest or weed control at 62.5 g/ha [9]: 0%; pest or weed control at 250 g/ha [9]: 40%; plant injury at 15.625 g/ha (corn (Zea mays) [10]): 0%; plant injury at 62.5 g/ha (corn (Zea mays) [10]): 0%; plant injury at 250 g/ha (corn (Zea mays) [10]): 0%; pest or weed control at 15.625 g/ha [11]: 0%; pest or weed control at 62.5 g/ha [11]: 0%; pest or weed control at 250 g/ha [11]: 0%; pest or weed control at 15.625 g/ha [12]: 0%; pest or weed control at 62.5 g/ha [12]: 0%; pest or weed control at 250 g/ha [12]: 0% |
| CN1C[C@@H](c2ccc(C(F)(F)F)cc2)[C@H](C(=O)Nc2nnc[nH]2)C1=O (racemic) [Compound 1562] | 0 | 0 | 0 | 0 | 0 | 0 | 0 | 10 | 20 | 0 | 10 | 0 | 0 | 0 | 20 | 0 | 0 | 20 | 0 | 0 | pest or weed control at 250 g/ha [7]: 0%; pest or weed control at 62.5 g/ha [8]: 0%; pest or weed control at 250 g/ha [8]: 0%; pest or weed control at 15.625 g/ha [9]: 0%; pest or weed control at 62.5 g/ha [9]: 0%; pest or weed control at 250 g/ha [9]: 0%; plant injury at 15.625 g/ha (corn (Zea mays) [10]): 0%; plant injury at 62.5 g/ha (corn (Zea mays) [10]): 0%; plant injury at 250 g/ha (corn (Zea mays) [10]): 0%; pest or weed control at 250 g/ha [11]: 30%; pest or weed control at 15.625 g/ha [12]: 0%; pest or weed control at 62.5 g/ha [12]: 0%; pest or weed control at 250 g/ha [12]: 20% |
